{"source": "paper PMC12794188", "about": "“Maternal–Fetal Transfer and Toxicokinetics of 2,2′,5,5′-Tetrachlorobiphenyl, [^14C]-PCB52, Following Intratracheal Administration” (Chemical Research in Toxicology, 2025)", "test": "Toxicokinetics and tissue disposition of total [14C] radioactivity after a single intratracheal dose of [14C]-PCB52 (0.157 mg/kg) in pregnant rats at GD 11±1", "assay_type": "in vivo, Sprague–Dawley rats", "description": "Female Sprague–Dawley rats (8 weeks old) weighing 237–269.7 g (mean = 247.5 g) (Envigo RMS, LLC, Indianapolis, IN) were used for this study. All animal experiments were performed following the protocols evaluated and approved by the University of Iowa Institutional Animal Care and Use Committee (approval number 3091097). After arrival, the animals were acclimated for 7 days. The animals were housed in a light and temperature-controlled environment with ad libitum access to food and water during quarantine and throughout the study. Timed pregnancy was achieved by harem mating. , Briefly, one male and two female rats were placed together in the evening and checked for vaginal plug the following day. If vaginal plug was present, the male was removed from the breeding cage, and the gestation day 0 (GD 0), 0-day post coitum was assigned. Pregnancies were confirmed by ultrasound scan at GD 9. The dams were exposed at GD 11 (±1 day) to capture the period of early organogenesis and hormonal function, which falls within week 3 of human embryonic development. ,− On the day of the experiment, pregnant rats were intratracheally administered an average of 40 μg (range, 35–45 μg) of [^14C]-PCB52 in 100 μL of exposure solution. Although the dose used in this study exceeded the tolerable daily intake (TDI) of PCBs for healthy individuals, which is 1.6 μg per day for an individual weighing 80 kg, the use of higher acute doses has been established in toxicological studies intended for risk assessment. The intratracheal instillation method was chosen for administering [^14C]-PCB52 to represent inhalation exposures, capture exhaled concentration, and efficiently utilize the limited availability of the cost-intensive radiolabeled PCB52. , Although inhalation exposure would better represent real-world exposures to airborne LC-PCBs, it would not allow us to accurately measure the amount of PCB52 exhaled into the air after exposure and is experimentally infeasible. […] All intratracheal instillations were done under light anesthesia, achieved using a 4% isoflurane concentration via a Fortec vaporizer (Cyprane, Keighley, UK). The animals recovered from anesthesia within 1 min. Subsequently, the animals were housed within a cylindrical glass chamber measuring 2 L in volume, equipped with glass drainage mechanisms to facilitate urine collection and a metallic screen to segregate urine from feces (as in Figure S1). Air was drawn from the chamber at 6.0 L/min through a cartridge containing the XAD-2 polymeric resin to capture any exhaled [^14C]-PCB52. For periods longer than 24 h postexposure, exposed dams were placed in a metabolic cage, which was fitted with a cartridge containing XAD-2 to capture exhaled [^14C]-PCB52 as in other end points.\nMaternal blood, urine, and feces samples were collected immediately before and at 0.21, 1.67, 12, 24, 48, and 96 h after lung dosing. The exposed dams were euthanized using 4% isoflurane, followed by cervical dislocation and exsanguination via a cardiac puncture. Euthanasia was consistently performed during the light cycle. Dams’ fur was wiped and analyzed for radioactivity. Using the retro-orbital blood collection method, 0.5–1.5 mL ([…] of an exposed pregnant rat’s body weight) of blood sample was collected from each of the dams until the individual dams were necropsied for whole-body tissue harvesting. At the end of the exposure period, the chamber’s interior walls were rinsed separately with water and acetone/hexane (25 – 45 mL) and wiped to measure residues. From the collected whole blood samples, 100 μL were aliquoted into three vials each, and the remaining blood was allowed to clot at room temperature before being centrifuged to yield serum. The placentas, developing fetuses, and whole-body tissue samples were harvested immediately before exposure and at 0.21, 1.67, 12, 24, and 96 h postexposure. […]", "key": {"[1]": {"details": "AF (amniotic fluid)/MS (maternal serum)"}, "[2]": {"details": "Adipose tissue, 0.21 h post-exposure"}, "[3]": {"details": "Adipose tissue, 1.67 h post-exposure"}, "[4]": {"details": "Adipose tissue, 12 h post-exposure"}, "[5]": {"details": "Brown adipose, 0.21 h post-exposure"}, "[6]": {"details": "Brown adipose, 1.67 h post-exposure"}, "[7]": {"details": "Brown adipose, 12 h post-exposure"}, "[8]": {"details": "Brown adipose, 24 h post-exposure"}, "[9]": {"details": "Brown adipose, 96 h post-exposure"}, "[10]": {"details": "Esophagus, 0.21 h post-exposure"}, "[11]": {"details": "Esophagus, 1.67 h post-exposure"}}}
{"compound": "Clc1ccc(Cl)c(-c2cc(Cl)ccc2Cl)c1", "note": "[PCB52, 2,2′,5,5′-Tetrachlorobiphenyl]", "values": [{"measurement": "AUC0‑∞ ratio", "setting": "[1]", "value": 0.050}, {"measurement": "AUC0–96h ratio", "setting": "[1]", "value": 0.053}, {"measurement": "C max ratio", "setting": "[1]", "value": 0.043}, {"measurement": "AUC0–96h ratio", "setting": "AF (amniotic fluid)/brain", "value": 0.079}, {"measurement": "C max ratio", "setting": "AF (amniotic fluid)/brain", "value": 0.071}, {"measurement": "AUC_%Extrap", "setting": "Adipose tissue", "value": 42.32, "unit": "%"}, {"measurement": "Terminal elimination half-life (t1/2)", "setting": "Adipose tissue", "value": 72.85, "unit": "h"}, {"measurement": "Conc. per mg wet tissue", "setting": "[2]", "value": 8.78, "unit": "dpm/mg"}, {"measurement": "Percent tissue distribution", "setting": "[2]", "value": 10.92, "unit": "%"}, {"measurement": "Conc. per mg wet tissue", "setting": "[3]", "value": 19.77, "unit": "dpm/mg"}, {"measurement": "Percent tissue distribution", "setting": "[3]", "value": 33.81, "unit": "%"}, {"measurement": "Conc. per mg wet tissue", "setting": "[4]", "value": 27.29, "unit": "dpm/mg"}, {"measurement": "Percent tissue distribution", "setting": "[4]", "value": 26.32, "unit": "%"}, {"measurement": "Percent tissue distribution", "setting": "Adipose tissue, 24 h post-exposure", "value": 28.25, "unit": "%"}, {"measurement": "AUC_%Extrap", "setting": "Adrenal gland", "value": 74.40, "unit": "%"}, {"measurement": "Terminal elimination half-life (t1/2)", "setting": "Adrenal gland", "value": 253.59, "unit": "h"}, {"measurement": "AUC_%Extrap", "setting": "Bladder", "value": 40.50, "unit": "%"}, {"measurement": "Terminal elimination half-life (t1/2)", "setting": "Bladder", "value": 57.81, "unit": "h"}, {"measurement": "Conc. per mg wet tissue", "setting": "Brain, 0.21 h post-exposure", "value": 1.44, "unit": "dpm/mg"}, {"measurement": "Percent tissue distribution", "setting": "Brain, 0.21 h post-exposure", "value": 0.79, "unit": "%"}, {"measurement": "Conc. per mg wet tissue", "setting": "Brain, 1.67 h post-exposure", "value": 4.90, "unit": "dpm/mg"}, {"measurement": "Percent tissue distribution", "setting": "Brain, 1.67 h post-exposure", "value": 0.52, "unit": "%"}, {"measurement": "Conc. per mg wet tissue", "setting": "Brain, 12 h post-exposure", "value": 0.67, "unit": "dpm/mg"}, {"measurement": "Percent tissue distribution", "setting": "Brain, 12 h post-exposure", "value": 0.08, "unit": "%"}, {"measurement": "Conc. per mg wet tissue", "setting": "Brain, 24 h post-exposure", "value": 0.64, "unit": "dpm/mg"}, {"measurement": "Percent tissue distribution", "setting": "Brain, 24 h post-exposure", "value": 0.07, "unit": "%"}, {"measurement": "Conc. per mg wet tissue", "setting": "Brain, 96 h post-exposure", "value": 0.67, "unit": "dpm/mg"}, {"measurement": "Percent tissue distribution", "setting": "Brain, 96 h post-exposure", "value": 0.10, "unit": "%"}, {"measurement": "Conc. per mg wet tissue", "setting": "Bronchi, 0.21 h post-exposure", "value": 81.91, "unit": "dpm/mg"}, {"measurement": "Percent tissue distribution", "setting": "Bronchi, 0.21 h post-exposure", "value": 0.66, "unit": "%"}, {"measurement": "Conc. per mg wet tissue", "setting": "Bronchi, 1.67 h post-exposure", "value": 33.51, "unit": "dpm/mg"}, {"measurement": "Percent tissue distribution", "setting": "Bronchi, 1.67 h post-exposure", "value": 0.20, "unit": "%"}, {"measurement": "Conc. per mg wet tissue", "setting": "Bronchi, 12 h post-exposure", "value": 20.05, "unit": "dpm/mg"}, {"measurement": "Percent tissue distribution", "setting": "Bronchi, 12 h post-exposure", "value": 0.10, "unit": "%"}, {"measurement": "Conc. per mg wet tissue", "setting": "Bronchi, 24 h post-exposure", "value": 18.87, "unit": "dpm/mg"}, {"measurement": "Percent tissue distribution", "setting": "Bronchi, 24 h post-exposure", "value": 0.08, "unit": "%"}, {"measurement": "Conc. per mg wet tissue", "setting": "Bronchi, 96 h post-exposure", "value": 1.44, "unit": "dpm/mg"}, {"measurement": "Percent tissue distribution", "setting": "Bronchi, 96 h post-exposure", "value": 0.01, "unit": "%"}, {"measurement": "Conc. per mg wet tissue", "setting": "[5]", "value": 40.87, "unit": "dpm/mg"}, {"measurement": "Percent tissue distribution", "setting": "[5]", "value": 0.21, "unit": "%"}, {"measurement": "Conc. per mg wet tissue", "setting": "[6]", "value": 120.53, "unit": "dpm/mg"}, {"measurement": "Percent tissue distribution", "setting": "[6]", "value": 0.87, "unit": "%"}, {"measurement": "Conc. per mg wet tissue", "setting": "[7]", "value": 27.78, "unit": "dpm/mg"}, {"measurement": "Percent tissue distribution", "setting": "[7]", "value": 0.00, "unit": "%"}, {"measurement": "Conc. per mg wet tissue", "setting": "[8]", "value": 23.09, "unit": "dpm/mg"}, {"measurement": "Percent tissue distribution", "setting": "[8]", "value": 0.18, "unit": "%"}, {"measurement": "Conc. per mg wet tissue", "setting": "[9]", "value": 4.17, "unit": "dpm/mg"}, {"measurement": "Percent tissue distribution", "setting": "[9]", "value": 0.00, "unit": "%"}, {"measurement": "AUC_%Extrap", "setting": "Colon tissue", "value": 22.17, "unit": "%"}, {"measurement": "Terminal elimination half-life (t1/2)", "setting": "Colon tissue", "value": 40.46, "unit": "h"}, {"measurement": "Conc. per mg wet tissue", "setting": "Colon, 0.21 h post-exposure", "value": 9.24, "unit": "dpm/mg"}, {"measurement": "Percent tissue distribution", "setting": "Colon, 0.21 h post-exposure", "value": 0.35, "unit": "%"}, {"measurement": "Conc. per mg wet tissue", "setting": "Colon, 1.67 h post-exposure", "value": 5.24, "unit": "dpm/mg"}, {"measurement": "Percent tissue distribution", "setting": "Colon, 1.67 h post-exposure", "value": 0.28, "unit": "%"}, {"measurement": "Conc. per mg wet tissue", "setting": "Colon, 12 h post-exposure", "value": 5.56, "unit": "dpm/mg"}, {"measurement": "Percent tissue distribution", "setting": "Colon, 12 h post-exposure", "value": 0.41, "unit": "%"}, {"measurement": "Conc. per mg wet tissue", "setting": "Colon, 24 h post-exposure", "value": 9.18, "unit": "dpm/mg"}, {"measurement": "Percent tissue distribution", "setting": "Colon, 24 h post-exposure", "value": 0.51, "unit": "%"}, {"measurement": "Conc. per mg wet tissue", "setting": "Colon, 96 h post-exposure", "value": 1.87, "unit": "dpm/mg"}, {"measurement": "Percent tissue distribution", "setting": "Colon, 96 h post-exposure", "value": 0.16, "unit": "%"}, {"measurement": "AUC_%Extrap", "setting": "Duodenum", "value": 14.10, "unit": "%"}, {"measurement": "Terminal elimination half-life (t1/2)", "setting": "Duodenum", "value": 34.84, "unit": "h"}, {"measurement": "Tmax", "setting": "Duodenum", "value": "≤ 0.21", "unit": "h"}, {"measurement": "Conc. per mg wet tissue", "setting": "Duodenum, 0.21 h post-exposure", "value": 21.37, "unit": "dpm/mg"}, {"measurement": "Percent tissue distribution", "setting": "Duodenum, 0.21 h post-exposure", "value": 0.71, "unit": "%"}, {"measurement": "Conc. per mg wet tissue", "setting": "Duodenum, 1.67 h post-exposure", "value": 8.50, "unit": "dpm/mg"}, {"measurement": "Percent tissue distribution", "setting": "Duodenum, 1.67 h post-exposure", "value": 0.25, "unit": "%"}, {"measurement": "Conc. per mg wet tissue", "setting": "Duodenum, 12 h post-exposure", "value": 3.28, "unit": "dpm/mg"}, {"measurement": "Percent tissue distribution", "setting": "Duodenum, 12 h post-exposure", "value": 0.12, "unit": "%"}, {"measurement": "Conc. per mg wet tissue", "setting": "Duodenum, 24 h post-exposure", "value": 4.69, "unit": "dpm/mg"}, {"measurement": "Percent tissue distribution", "setting": "Duodenum, 24 h post-exposure", "value": 0.17, "unit": "%"}, {"measurement": "Conc. per mg wet tissue", "setting": "Duodenum, 96 h post-exposure", "value": 0.83, "unit": "dpm/mg"}, {"measurement": "Percent tissue distribution", "setting": "Duodenum, 96 h post-exposure", "value": 0.05, "unit": "%"}, {"measurement": "AUC_%Extrap", "setting": "Esophagus", "value": 11.71, "unit": "%"}, {"measurement": "Terminal elimination half-life (t1/2)", "setting": "Esophagus", "value": 46.31, "unit": "h"}, {"measurement": "Conc. per mg wet tissue", "setting": "[10]", "value": 72.35, "unit": "dpm/mg"}, {"measurement": "Percent tissue distribution", "setting": "[10]", "value": 0.51, "unit": "%"}, {"measurement": "Conc. per mg wet tissue", "setting": "[11]", "value": 5.67, "unit": "dpm/mg"}, {"measurement": "Percent tissue distribution", "setting": "[11]", "value": 0.06, "unit": "%"}, {"measurement": "Conc. per mg wet tissue", "setting": "Esophagus, 12 h post-exposure", "value": 1.09, "unit": "dpm/mg"}, {"measurement": "Percent tissue distribution", "setting": "Esophagus, 12 h post-exposure", "value": 0.01, "unit": "%"}, {"measurement": "Conc. per mg wet tissue", "setting": "Esophagus, 24 h post-exposure", "value": 0.76, "unit": "dpm/mg"}, {"measurement": "Percent tissue distribution", "setting": "Esophagus, 24 h post-exposure", "value": 0.01, "unit": "%"}]}
